The values below come from patent US20090118135A1, “METHODS AND COMPOUNDS FOR REGULATING APOPTOSIS” (The Burnham Institute, priority 2007, published 2009).

The assay deals with T1, GST-Bfl-1 (Homo sapiens, UniProt Q16548).
T1 construct: lacking their C-terminal transmembrane domains (about the last 20 amino acids) (“ΔTM”); made in house; host or cells: XL-1 Blue E. coli, pGEX 4T-1
T1 sequence (Q16548 1-155 limits assumed): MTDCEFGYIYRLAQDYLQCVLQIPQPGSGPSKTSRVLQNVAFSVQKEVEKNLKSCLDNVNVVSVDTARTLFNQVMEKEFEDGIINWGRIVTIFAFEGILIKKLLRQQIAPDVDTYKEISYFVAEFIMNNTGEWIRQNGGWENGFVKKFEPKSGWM
Description: Bfl-1/FITC-Bid BH3 competitive fluorescence polarization assay. The class given is binding. Conditions: primary HTS hits, MLSCN library (PubChem SIDs), Table 5B.

As for `N#Cc1ccccc1CN1C(=O)S/C(=C/c2cccn2-c2ccc(C(=O)O)cc2)C1=O` [Compound 17385953], the “% Activity” value stood at 63.5% and the FRatio is given as 0.75.
Turning to `Cn1c(SCC(=O)Nc2ccc3nc(SCC(=O)N4CCCC4)sc3c2)nnc1-c1ccc(N)cc1` [Compound 17386645], the “% Activity” value is 53.9% and the FRatio was determined as 0.79.
For `COc1cc(CNCCc2c[nH]c3ccccc23)ccc1OCc1ccc(F)cc1` [Compound 17386700], in that order: 76.5% and 0.84.
For `CN(CC(=O)Nc1c(Cl)cccc1Cl)C(=O)CCCN1C(=O)c2ccccc2C1=O` [Compound 17388283], the “% Activity” value was 57.1% and the FRatio is 0.97.
For `O=[N+]([O-])c1cc(-c2ccc(/C=N/c3nc4ccccn4c3-c3ccco3)o2)ccc1Cl` [Compound 17388349], in that order: 60.5% and 0.99.
For `CCn1c(CSc2nc3ccccc3s2)nnc1SCC(=O)c1ccc(O)c(O)c1` [Compound 17388455], in that order: 74.1% and 0.8.
For `CN(C)c1cccc(C(=O)OCc2cc(=O)oc3cc(O)ccc23)c1` [Compound 17388495], in that order: 71.7% and 1.
Consider `C=CCN1C(=O)/C(=C2/C(=O)N(CC(=O)O)c3ccccc32)S/C1=N\c1nccs1` [Compound 17401584], for which the “% Activity” value is recorded as 131.8% and the FRatio amounted to 0.83.
Consider `Oc1ccc(C2=Nn3c(nnc3-c3ccco3)SC2)cc1O` [Compound 17401638], for which the “% Activity” value was 56.6% and the FRatio came out at 0.82.
For `COc1ccc(C2C=C(c3ccc(Br)cc3)Nc3nc(NS(C)(=O)=O)nn32)cc1` (centres unmarked) [Compound 17401655], in that order: 54.6% and 1.46.
Turning to `O=C(CCCCCn1c(=S)[nH]c2ccccc2c1=O)NCc1ccc2c(c1)OCO2` [Compound 17402018], the “% Activity” value is recorded as 52.9% and the FRatio amounted to 1.37.
The like results for `O=c1c([N+](=O)[O-])cc(C(F)(F)F)cn1Cc1cccc(Cl)c1` [Compound 17402915] were, in that order, 89.8% and 0.61.
The like results for `O=C1c2ccccc2C(=O)c2c1cccc2N1CCN(CCO)CC1` [Compound 17403435] were, in that order, 56.9% and 1.3.
For `Nc1cc2nsnc2cc1Br` [Compound 17407909], in that order: 58.5% and 1.42.
Take `O=C(N/N=C/c1ccc(F)cc1)c1cc(-c2ccco2)nc2ccccc12` [Compound 17408998]: the “% Activity” value is on record as 84.8% and the FRatio came to 0.87.
The like results for `O=C(COc1ccccc1C(=O)N/N=C/c1ccc(O)c(O)c1)N/N=C/c1ccc(O)c(O)c1` [Compound 17409262] were, in that order, 70.9% and 0.77.
The like results for `Cc1nc(NC(=O)c2ccco2)sc1-c1csc(Nc2ccc(Cl)cc2Cl)n1` [Compound 17410012] were, in that order, 54.4% and 0.7.
Take `COC(=O)C1=C(C)N(c2ccccc2)/C(=C/c2cccs2)C1=O` [Compound 17415043]: the “% Activity” value is recorded as 65.7% and the FRatio is 0.53.
For `N/C(=N\N=C\c1ccc(-c2ccc(O)c(C(=O)O)c2)o1)N[N+](=O)[O-]` [Compound 17416093], in that order: 84.4% and 0.7.
